Assay results taken from patent US10842796B2, “Treatment of dementia” (WisTa Laboratories Ltd., priority 2016, dated 2020).
Read-outs that look alike come from different tables or passages of the source.

Key:
[1] = compatibility of LMTM tablets with AD treatments (HPLC recovery of LMT and MT); assay type: physicochemical
Experimental: The effect of combining tablets of galantamine, memantine, donepezil or rivastigmine independently with LMTM was studied and LMTM was analysed in the resultant mixture.
One LMTM tablet (100 mg) was added to a degassed 200 ml amber volumetric flask along with one prescription dose of each of the test drugs, as indicated in the table below, and 100 ml of diluent (degassed 0.1% formic acid). Flasks were given an argon headspace and shaken on a wrist action shaker for 40 minutes at 250 oscillations/min. Samples were then diluted to the graduation mark with diluent, given an argon headspace and inverted to mix. Subsamples of the resulting solution were centrifuged at 13,000 rpm for 5 minutes to remove any undissolved excipients and the supernatant placed in an amber HPLC vial and injected into a high performance liquid chromatography (HPLC) system (Agilent 1260) to separate LMT and MT. LMT and MT peaks were identified by absorbance at 255 nm with retention times of 5.5 and 14 minutes, respectively (FIG. 11).

[2] = test system: behavioural variant frontotemporal dementia (bvFTD); conditions: for ACE-R treatment effect mean (se) / FAQ treatment effect mean (se) / Fronto-temporal volume treatment effect mean (se): wrt 4 mg b.i.d. alone
Experimental: (1) Addenbrooke's Cognitive Examination—revised (ACE-R) and (2) Functional Activities Questionnaire [FAQ] or MRI (with Bonferroni Holme correction)
The effect of co-medication with symptomatic AD treatments which modify synaptic neurotransmission in the brain (acetylcholinesterase inhibitors or the NMDA antagonist “memantine”) was assessed. For brevity these treatments may be referred to as “AChEI/Mem” below.

[3] = 14-day and 25-day repeat-dose studies in healthy volunteers (discoloration); assay type: in vivo, human; conditions: 4 mg BID lowest dose with comparable discoloration
TDP-43 aggregates = conditions: 0.05 μM MT; SH-SYSY cells; cited from earlier work
[4] = 100 mg LMTM + 6 mg rivastigmine
[5] = 100 mg LMTM + 12 mg galantamine
[6] = 100 mg LMTM tablet, no addition, HPLC 255 nm
[7] = 4 mg b.i.d. versus 100 mg b.i.d.
[8] = ANCOVA model, 4 mg b.i.d. as add-on to AChEI/Mem
[9] = ANCOVA model, 100 mg b.i.d. alone
[10] = ANCOVA model, 100 mg b.i.d. as add-on to AChEI/Mem
[11] = MMRM model, 4 mg b.i.d. as add-on to AChEI/Mem
[12] = MMRM model, 100 mg b.i.d. alone
[13] = MMRM model, 100 mg b.i.d. as add-on to AChEI/Mem

## CN(C)c1ccc2c(c1)Sc1cc(N(C)C)ccc1N2 [LMTM, leuco-methylthioninium bis(hydromethanesulfonate)]
[1]; [4]
  LMT (% difference from control*): 5.64%
  LMT (area): 23302.4 area
  MT (% difference from control*): 2.14%
  MT (area): 320.6 area
[1]; 100 mg LMTM + 10 mg donepezil
  LMT (% difference from control*): −2.58%
  LMT (area): 22058.4 area
  MT (% difference from control*): −6.58%
  MT (area): 313.9205 area
[1]; 100 mg LMTM + 10 mg memantine
  LMT (% difference from control*): 2.19%
  LMT (area): 22642.3 area
  MT (% difference from control*): 1.10%
  MT (area): 336 area
[1]; [5]
  LMT (% difference from control*): −1.37%
  LMT (area): 22157.4 area
  MT (% difference from control*): −14.90%
  MT (area): 332.3 area
[1]; [6]
  LMT (area): 22465.7 area
  MT (area): 390.5473 area
[1]; after mixing with any of the AChEIs or memantine
  amount of oxidised MT after mixing: not increased
[1]; following HPLC analysis
  LMTM found in the oxidised form: Less than 2%
[2]; 4 mg b.i.d. and 100 mg b.i.d.
  decline on ACE-R and MMSE compared with historical controls: significantly less than historical controls
[2]; [7]
  ADCS-CGIC, FRS, MMSE, UPDRS (safety outcome): no difference
  primary analysis models for ACE-R, FAQ and Whole Brain Volume: no difference
[2]; 4 mg bd
  12 m change in MMSE (decline), present study: 3.4 ± 0.5
  12 month change in ACE-R (decline), present study: 10.4 ± 1.4
[2]; 100 mg bd
  12 m change in MMSE (decline), present study: 3.0 ± 0.7
  12 month change in ACE-R (decline), present study: 10.7 ± 1.4
[2]; [8]
  ACE-R treatment effect mean (se): 6.52 (2.42)
  FAQ treatment effect mean (se): 2.15 ± 1.21
  Fronto-temporal volume treatment effect mean (se): 356 (237)
[2]; [9]
  ACE-R treatment effect mean (se): 1.35 (1.71)
  FAQ treatment effect mean (se): −0.11 ± 0.87
  Fronto-temporal volume treatment effect mean (se): −98 (173)
[2]; [10]
  ACE-R treatment effect mean (se): 9.69 (2.73)
  FAQ treatment effect mean (se): 1.90 ± 1.37
  Fronto-temporal volume treatment effect mean (se): 481 (258)
[2]; [11]
  ACE-R treatment effect mean (se): 7.17 ± 3.25
  FAQ treatment effect mean (se): 2.08 ± 1.31
  Fronto-temporal volume treatment effect mean (se): 240 (291)
[2]; [12]
  ACE-R treatment effect mean (se): −1.12 ± 2.28
  FAQ treatment effect mean (se): −0.03 ± 0.92
  Fronto-temporal volume treatment effect mean (se): −4 (207)
[2]; [13]
  ACE-R treatment effect mean (se): 5.65 ± 3.57
  FAQ treatment effect mean (se): 2.36 ± 1.45
  Fronto-temporal volume treatment effect mean (se): 278 (313)
[2]; data not shown
  safety profile: raised no major concerns
[2]; post hoc exploratory analyses
  FAQ, MMSE and fronto-temporal volume, LMTM in combination with AD treatments versus LMTM alone: directionally supportive benefits
[2]; post hoc exploratory analyses with AD-comedication status and severity as covariates
  ACE-R, LMTM in combination with off-label AD treatments (AChEI/Mem) versus LMTM alone: significant benefits
[3]
  urine and stool discoloration: associated with urine and stool discoloration

## Methylthioninium [MT]
TDP-43 aggregates
  reduction of number of intracellular TDP-43 aggregates: 50%
